Results as given in patent US8067583B2, “Method for synthesizing furanosteroids” (Trustees of Dartmouth College, priority 2006, dated 2011).
Values belong to the compound of their own block, whether it stands above or below them.

Legend:
PI3-kinase = details: read-out: IC50, inhibitor of PI3-kinase; cited from earlier work
PI3K-Beta = PI3K-Beta (Homo sapiens, UniProt P42338); assay: activity against PI3K-Beta; type: biochemical
Text: Novel furanosteroids produced according to the present method can be screened for biological activity using any conventional method. For example, PI3 kinase assays are disclosed by Yuan, et al. ((2005) Bioconjugate Chem, 16 (3): 669-675) and Fruman, et al. ((1999) Science 283:393-7). Assays for monitoring the assembly of peptide-MHC class II complexes (Song, et al. (1997) International Immunology 9:1709-1722) and mast cell exocytosis (Marquardt, et al. (1996) J. Immunol. 156:1942-1945) are known in the art as are assays for monitoring cell proliferation.

[1] = target: mammalian Polo-like kinase (Homo sapiens, UniProt P53350); details: cited from earlier work
Sequence of mammalian Polo-like kinase (P53350 whole entry): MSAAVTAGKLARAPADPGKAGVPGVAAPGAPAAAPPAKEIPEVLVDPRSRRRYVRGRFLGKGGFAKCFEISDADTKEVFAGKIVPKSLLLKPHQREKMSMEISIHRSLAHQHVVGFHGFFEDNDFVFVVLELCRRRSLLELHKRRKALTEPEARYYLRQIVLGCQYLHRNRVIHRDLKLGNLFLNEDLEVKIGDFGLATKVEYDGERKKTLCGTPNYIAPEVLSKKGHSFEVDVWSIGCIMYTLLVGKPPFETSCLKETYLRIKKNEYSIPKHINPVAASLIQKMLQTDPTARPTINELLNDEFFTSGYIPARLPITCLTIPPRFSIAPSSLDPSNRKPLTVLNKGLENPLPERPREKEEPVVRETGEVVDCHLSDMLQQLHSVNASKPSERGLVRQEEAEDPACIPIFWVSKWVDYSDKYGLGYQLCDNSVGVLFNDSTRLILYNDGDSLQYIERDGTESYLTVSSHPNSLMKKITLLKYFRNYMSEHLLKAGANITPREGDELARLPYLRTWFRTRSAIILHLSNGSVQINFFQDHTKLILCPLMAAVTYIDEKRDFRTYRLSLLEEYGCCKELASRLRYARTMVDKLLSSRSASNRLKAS

[2] = storage stability of isolated isomers; type: physicochemical
Description: A solution of 50.0 mg (0.136 mmol, 1.0 eq) of aldehyde 18 in 13.6 mL of dry CH2Cl2 was stirred in a 25 mL round bottom flask at room temperature under argon. To this solution was slowly added 271 μL (1.0 M in CH2Cl2, 0.271 mmol, 2.0 eq) of TiCl4. […] The solution was then diluted with CH2Cl2 and washed with H2O. The aqueous portion was then extracted three times with CH2Cl2. The combined organic fractions were then dried over MgSO4 and concentrated. Purification via silica gel chromatography (hexane/EtOAc) gave 20.4 mg (59%) of the syn-isomer 19-Syn and 5.4 mg (16%) of the anti-isomer 19-Anti as unstable brown oils. […] The decomposition was of a general nature and none of the stable, known retro-aldol product was observed.

Sequence of PI3K-Beta (P42338 whole entry, species assumed): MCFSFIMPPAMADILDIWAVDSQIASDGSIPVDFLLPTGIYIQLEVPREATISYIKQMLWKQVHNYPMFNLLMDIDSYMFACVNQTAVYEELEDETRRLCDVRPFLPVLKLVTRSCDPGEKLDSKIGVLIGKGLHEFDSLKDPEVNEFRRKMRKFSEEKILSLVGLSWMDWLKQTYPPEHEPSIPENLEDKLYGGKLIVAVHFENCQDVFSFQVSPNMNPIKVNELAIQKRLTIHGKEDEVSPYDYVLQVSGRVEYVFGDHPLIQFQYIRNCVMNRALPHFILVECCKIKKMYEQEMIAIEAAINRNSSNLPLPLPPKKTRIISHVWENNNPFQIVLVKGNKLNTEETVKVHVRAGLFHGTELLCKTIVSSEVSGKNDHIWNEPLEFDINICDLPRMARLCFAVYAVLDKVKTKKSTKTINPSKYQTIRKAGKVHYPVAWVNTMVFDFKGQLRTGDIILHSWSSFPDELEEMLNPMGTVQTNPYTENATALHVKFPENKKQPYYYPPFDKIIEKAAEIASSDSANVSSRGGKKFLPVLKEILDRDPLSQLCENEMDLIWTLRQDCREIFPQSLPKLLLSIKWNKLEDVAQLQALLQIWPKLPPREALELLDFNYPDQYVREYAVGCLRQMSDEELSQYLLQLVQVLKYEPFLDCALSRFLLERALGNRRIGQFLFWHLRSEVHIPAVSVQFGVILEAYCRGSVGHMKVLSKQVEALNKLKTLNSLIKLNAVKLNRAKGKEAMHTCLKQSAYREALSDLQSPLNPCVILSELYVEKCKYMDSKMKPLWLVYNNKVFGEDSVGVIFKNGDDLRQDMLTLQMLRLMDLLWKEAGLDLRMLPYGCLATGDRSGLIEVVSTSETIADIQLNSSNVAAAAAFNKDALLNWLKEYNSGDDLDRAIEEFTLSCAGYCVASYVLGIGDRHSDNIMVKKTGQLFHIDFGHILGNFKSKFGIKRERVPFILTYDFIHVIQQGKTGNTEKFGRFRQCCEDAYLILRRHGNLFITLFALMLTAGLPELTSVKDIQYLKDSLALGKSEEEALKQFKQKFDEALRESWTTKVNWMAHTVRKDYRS
Sequence of PI3K-Beta (P27986 whole entry partner, species assumed): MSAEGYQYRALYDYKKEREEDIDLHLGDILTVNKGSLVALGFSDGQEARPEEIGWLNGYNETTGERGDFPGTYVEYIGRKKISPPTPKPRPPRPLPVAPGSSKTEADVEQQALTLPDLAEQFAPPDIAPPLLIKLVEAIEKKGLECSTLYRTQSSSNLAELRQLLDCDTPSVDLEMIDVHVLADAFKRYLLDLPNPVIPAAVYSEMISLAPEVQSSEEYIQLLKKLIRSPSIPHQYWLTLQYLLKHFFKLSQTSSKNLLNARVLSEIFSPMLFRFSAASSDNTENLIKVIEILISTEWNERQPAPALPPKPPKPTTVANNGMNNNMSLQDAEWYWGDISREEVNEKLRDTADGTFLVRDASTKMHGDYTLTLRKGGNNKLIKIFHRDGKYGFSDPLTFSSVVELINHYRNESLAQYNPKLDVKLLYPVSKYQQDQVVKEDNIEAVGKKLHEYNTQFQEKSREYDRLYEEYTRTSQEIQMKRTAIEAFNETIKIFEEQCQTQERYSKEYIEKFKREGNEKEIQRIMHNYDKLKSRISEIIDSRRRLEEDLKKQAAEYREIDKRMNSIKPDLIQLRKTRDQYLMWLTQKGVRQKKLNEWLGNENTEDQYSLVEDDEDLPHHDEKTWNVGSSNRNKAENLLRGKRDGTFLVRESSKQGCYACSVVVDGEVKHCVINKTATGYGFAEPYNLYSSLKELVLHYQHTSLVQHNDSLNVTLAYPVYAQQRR

Structure (SMILES): COC[C@H]1OC(=O)c2coc3c2[C@@]1(C)C1=C(C3=O)[C@@H]2CC[C@H](O)[C@@]2(C)C[C@H]1OC(C)=O [17β-OH wortmannin]
IC50 (PI3-kinase): 0.5 nM

activity against PI3K-Beta (PI3K-Beta): sub-micromolar
Structure (SMILES): C[C@]12COC(=O)c3coc(c31)C(=O)c1ccccc12 [Compound 47]

Structure (SMILES): COC[C@H]1OC(=O)c2coc3c2C1(C)C1=C(C3=O)[C@@H]2CCC(=O)C2(C)C[C@H]1OC(C)=O (some centres unmarked) [wortmannin]
inhibition of mammalian Polo-like kinase [1]: inhibit

Structure (SMILES): CC12c3ccccc3C(=O)c3occ(c31)CC[C@H]2O (stereo in doubt) [Compound 19-Syn, 1-Hydroxy-10b-methyl-1,2,3,10b-tetrahydro-5-oxa-acephenanthrylen-6-one]
stability in a refrigerator ([2]; refrigerator): stable in a refrigerator for several weeks | stability at room temperature ([2]; room temperature, prolonged periods, isolated brown oils): Neither isomer was stable at room temperature for prolonged periods
